Measured values published in patent US12692253B2, “Antimicrobial compounds and methods” (Curza Global, LLC, priority 2019, dated 2026).

How the values were obtained:
[1] = molecular target: Rabbit Reticulocyte Lysate (eukaryotic protein synthesis); experiment: Rabbit reticulocyte lysate luciferase assay (inhibition of eukaryotic protein synthesis); format: biochemical; settings: class by IC50 or % inhibition @ 1 μM, read-out: Rabbit reticulocyte IC50 (μM/% inhib.)
Procedure, shortened: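 Percent inhibition calculated against water-only controls from luminescence; background set by lysate lacking RNA. Compounds, 8-point 2-fold titration, incubated 90 minutes at 30° C with nuclease-treated rabbit reticulocyte lysate programmed with luciferase control RNA plus complete amino acids.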

A. baumannn (Ab) = experiment: Broth microdilution minimum inhibitory concentration (MIC), CLSI; format: cell-based; settings: for Ab + bicarb MIC: A. baumannii, growth medium supplemented with sodium bicarbonate; for MIC: Acinetobacter baumannii, read-out: Ab + bicarb MIC
Procedure: (§1) A certified BSL-2 laboratory was used for testing. Compounds were evaluated using the broth microdilution minimum inhibitory concentration (MIC) and minimum bactericidal concentration (MBC) assays defined by Clinical and Laboratory Standards Institute (CLSI) in the M26-A guideline against S. aureus (Sa), E. coli (Ec), K. pneumoniae (Kp), A. baumannn (Ab), E. faecalis (Ef) and P. aeruginosa (Pa).
(§2) MICs were determined using the Clinical Laboratory and Standards Institute (CLSI) Broth Microdilution Method with slight modification. Clinical and Laboratory Standards Institute (2012). “Methods for dilution antimicrobial susceptibility tests for bacteria that grow aerobically; approved standard, 9th ed. M07-A9 Clinical and Laboratory Standards Institute, Wayne, PA” Serial two-fold dilutions of compounds are prepared in sterile clear round-bottom 96-well plates.
(§3) To prepare microdilution trays, two-fold dilutions of antimicrobial agent are prepared in growth medium: Cation-Adjusted Mueller-Hinton Broth (CAMHB), or CAMHB supplemented with sodium bicarbonate (6.25 or 25 mM final concentration prepared from a 1.0M stock solution) or CAMHB supplemented with heat inactivated human serum (Fisher Cat. #BP2657100) 0-50% by adding 200 µL of the highest concentration to be tested (64 μg/mL, for example) in row A, mixing and transferring 100 μL from row A to 100 μL growth medium in row B, then repeating the mixing and transferring through row H of the 96-well plate, discarding the excess […] remaining. This slight modification to the CLSI protocol enables evaluation of MICs for 3 compounds per plate in triplicate, albeit with only 8 compound dilutions (CLSI protocol enables 2 compounds in triplicate with 10 dilutions). Bacterial suspensions are added to a final concentration of 5×10^4 CFU/well by adding 5 μL of a 1:10 dilution of a 0.5 McFarland suspension (1×10^8 CFU/mL) for each bacterium evaluated. Bacterial suspensions were prepared using the growth method described by CLSI. Well-isolated colonies (3-5 from an agar plate) were selected using a sterile loop and used to inoculate a tube containing 4 mL of CAMHB. The cultures are incubated at 35±2° C. until it achieves or exceeds the turbidity of the 0.5 McFarland standard, determined by measuring A600 (usually two to six hours). When growth exceeds a 0.5 McFarland standard, the turbidity is adjusted with broth to be equivalent to a 0.5 McFarland standard.

P. aeruginosa (Pa) = experiment: as above; format: cell-based; settings: growth medium supplemented with sodium bicarbonate; for MIC: Pseudomonas aeruginosa, read-out: Pa MIC + bicarb
Procedure: as §1, §2, §3

E. faecalis (Ef) = experiment: as above; format: cell-based; settings: growth medium supplemented with sodium bicarbonate; for MIC: Enterococcus faecalis, read-out: Ef + bicarb MIC
Procedure: as §1, §2, §3

E. coli (Ec) = experiment: as above; format: cell-based; settings: growth medium supplemented with sodium bicarbonate; for MIC: Escherichia coli, read-out: E. coli + bicarb MIC
Procedure: as §1, §2, §3

S. aureus (Sa) = experiment: as above; format: cell-based; settings: growth medium supplemented with sodium bicarbonate; for MIC: Staphylococcus aureus, read-out: Sa + bicarb MIC
Procedure: as §1, §2, §3

[2] = tested on: E. coli S30 extract (bacterial protein synthesis); experiment: E. coli S30 extract coupled transcription-translation luciferase assay (inhibition of bacterial protein synthesis); format: biochemical; settings: class by IC50 or % inhibition @ 1 μM, read-out: S30 IC50 (μM/% inhib.)
Procedure, shortened: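 Luciferase luminescence quantified inhibition of protein synthesis relative to water controls, with no-DNA reactions giving background. Compounds in 2-fold serial dilution (8 levels) were incubated 1 hour at 37 °C with E. coli S30 extract, amino acids and pBESTluc plasmid, then chilled to stop.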

| SMILES | IC50 [1] | Ab + bicarb MIC (A. baumannn (Ab)) | Pa MIC + bicarb (P. aeruginosa (Pa)) | Ef + bicarb MIC (E. faecalis (Ef)) | E. coli + bicarb MIC (E. coli (Ec)) | Sa + bicarb MIC (S. aureus (Sa)) | IC50 [2] | MIC (A. baumannn (Ab)) | MIC (P. aeruginosa (Pa)) | MIC (E. faecalis (Ef)) | MIC (E. coli (Ec)) | MIC (S. aureus (Sa)) |
| --- | --- | --- | --- | --- | --- | --- | --- | --- | --- | --- | --- | --- |
| CC(C)(N)C(=O)N1CCN(C(=O)Nc2ccn(-c3ccc(CN4CCC5(N)CC5C4)cc3)c(=O)n2)CC1 (stereo not shown) [Compound 23] | ≥ 1 µM | + (An MIC (μg/mL) value that is 32 μg/mL or greater) | + (An MIC (μg/mL) value that is 32 μg/mL or greater) | +++ (An MIC value (μg/mL) that is less than 8 μg/mL) | +++ (An MIC value (μg/mL) that is less than 8 μg/mL) | +++ (An MIC value (μg/mL) that is less than 8 μg/mL) | < 0.5 µM | – | – | – | – | – |
| C[C@](N)(CO)C(=O)N1CCN(C(=O)Nc2ccn(-c3ccc(CN4C[C@@H]5[C@@H](N)[C@@H]5C4)c(Cl)c3)c(=O)n2)CC1 [Compound 25] | ≥ 1 µM | – | – | – | – | – | < 0.5 µM | > 32 µg/mL | > 32 µg/mL | > 32 µg/mL | < 8 µg/mL | < 8 µg/mL |
| C[C@@H]1CN(C(=O)C(C)(C)N)CCN1C(=O)Nc1ccn(-c2ccc(CN3C[C@@H]4[C@@H](N)[C@@H]4C3)cc2)c(=O)n1 [Compound 28] | ≥ 1 µM | – | – | – | – | – | < 0.5 µM | > 32 µg/mL | > 32 µg/mL | < 8 µg/mL | < 8 µg/mL | < 8 µg/mL |
| CC(C)(N)C(=O)N1CCN(C(=O)Nc2ccn(-c3ccc(CN4CC5CCC(C4)C5N)cc3)c(=O)n2)CC1 (stereo not shown) [Compound 29] | ≥ 1 µM | – | – | – | – | – | 0.5 to 1 µM | > 32 µg/mL | > 32 µg/mL | 8 to 32 µg/mL | < 8 µg/mL | < 8 µg/mL |
| CC(C)(N)C(=O)N1CCN(C(=O)Nc2ccn(-c3ccc(CN4CC[C@H]5[C@H](N)[C@H]5C4)cc3)c(=O)n2)CC1 [Compound 30] | ≥ 1 µM | – | – | – | – | – | < 0.5 µM | 8 to 32 µg/mL | 8 to 32 µg/mL | < 8 µg/mL | < 8 µg/mL | < 8 µg/mL |
| CC(C)(N)C(=O)N1CCN(C(=O)Nc2ccn(-c3ccc(CN4CCC5(CC4)CC(N)C5)cc3)c(=O)n2)CC1 [Compound 33] | ≥ 1 µM | – | – | – | – | – | < 0.5 µM | 8 to 32 µg/mL | 8 to 32 µg/mL | < 8 µg/mL | < 8 µg/mL | < 8 µg/mL |
| CC(C)(N)C(=O)N1CCN(C(=O)Nc2ccn(-c3ccc(CN4CC5(CC(N)C5)C4)cc3)c(=O)n2)CC1 [Compound 34] | ≥ 1 µM | – | – | – | – | – | < 0.5 µM | > 32 µg/mL | > 32 µg/mL | 8 to 32 µg/mL | < 8 µg/mL | < 8 µg/mL |
| C[C@@](N)(CO)C(=O)N1CCN(C(=O)Nc2ccn(-c3ccc(CN4C[C@@H]5[C@@H](N)[C@@H]5C4)cc3)c(=O)n2)CC1 [Compound 40] | ≥ 1 µM | – | – | – | – | – | < 0.5 µM | > 32 µg/mL | > 32 µg/mL | < 8 µg/mL | < 8 µg/mL | < 8 µg/mL |
| NCC[C@H](N)C(=O)N1CCN(C(=O)Nc2ccn(-c3ccc(CN4C[C@@H]5[C@@H](N)[C@@H]5C4)cc3)c(=O)n2)CC1 [Compound 41] | ≥ 1 µM | – | – | – | – | – | ≥ 1 µM | > 32 µg/mL | > 32 µg/mL | > 32 µg/mL | > 32 µg/mL | > 32 µg/mL |
| CC(C)(N)C(=O)N1CCN(C(=O)Nc2ccn(-c3ccc(CN4CC5CC(N)C5C4)cc3)c(=O)n2)CC1 (stereo not shown) [Compound 42] | ≥ 1 µM | – | – | – | – | – | < 0.5 µM | > 32 µg/mL | > 32 µg/mL | 8 to 32 µg/mL | < 8 µg/mL | 8 to 32 µg/mL |
| C[C@@H]1CN(C(=O)Nc2ccn(-c3ccc(CN4C[C@@H]5[C@@H](N)[C@@H]5C4)cc3)c(=O)n2)CCN1C(=O)[C@@](C)(N)CO [Compound 45] | ≥ 1 µM | – | – | – | – | – | < 0.5 µM | > 32 µg/mL | 8 to 32 µg/mL | < 8 µg/mL | < 8 µg/mL | < 8 µg/mL |
| CC(C)(N)CC1CCN(C(=O)Nc2ccn(-c3ccc(CN4C[C@@H]5[C@@H](N)[C@@H]5C4)cc3)c(=O)n2)CC1 [Compound 48] | ≥ 1 µM | – | – | – | – | – | 0.5 to 1 µM | > 32 µg/mL | > 32 µg/mL | 8 to 32 µg/mL | < 8 µg/mL | < 8 µg/mL |
| NC1CC2(CCN(C(=O)Nc3ccn(-c4ccc(CN5C[C@@H]6[C@@H](N)[C@@H]6C5)cc4)c(=O)n3)CC2)C1 [Compound 49] | ≥ 1 µM | – | – | – | – | – | < 0.5 µM | > 32 µg/mL | > 32 µg/mL | 8 to 32 µg/mL | < 8 µg/mL | < 8 µg/mL |
| COC[C@@](C)(N)C(=O)N1CCN(C(=O)Nc2ccn(-c3ccc(CN4C[C@@H]5[C@@H](N)[C@@H]5C4)cc3)c(=O)n2)CC1 [Compound 53] | ≥ 1 µM | – | – | – | – | – | 0.5 to 1 µM | > 32 µg/mL | > 32 µg/mL | < 8 µg/mL | < 8 µg/mL | < 8 µg/mL |
| CC(C)(N)C1CN(C(=O)Nc2ccn(-c3ccc(CN4C[C@@H]5[C@@H](N)[C@@H]5C4)cc3)c(=O)n2)CCO1 (stereo partly shown) [Compound 56] | ≥ 1 µM | – | – | – | – | – | ≥ 1 µM | > 32 µg/mL | > 32 µg/mL | > 32 µg/mL | 8 to 32 µg/mL | > 32 µg/mL |
| CC(C)(N)C(=O)N1CCN(C(=O)Nc2ccn(-c3ccc(CN4C5CCC4CC(N)C5)cc3)c(=O)n2)CC1 (stereo not shown) [Compound 58] | ≥ 1 µM | – | – | – | – | – | < 0.5 µM | > 32 µg/mL | > 32 µg/mL | 8 to 32 µg/mL | < 8 µg/mL | < 8 µg/mL |
| CC(C)(N)C(=O)N1CCN(C(=O)Nc2ccn(-c3ccc(CN4C5CCC4CC(N)C5)cc3)c(=O)n2)CC1 (stereo not shown) [Compound 59] | ≥ 1 µM | + (An MIC (μg/mL) value that is 32 μg/mL or greater) | + (An MIC (μg/mL) value that is 32 μg/mL or greater) | +++ (An MIC value (μg/mL) that is less than 8 μg/mL) | +++ (An MIC value (μg/mL) that is less than 8 μg/mL) | +++ (An MIC value (μg/mL) that is less than 8 μg/mL) | < 0.5 µM | – | – | – | – | – |
| CC(C)(N)C(=O)N1CCN(C(=O)Nc2ccn(-c3ccc(CN4CC5(CCC5N)C4)cc3)c(=O)n2)CC1 (stereo not shown) [Compound 60] | ≥ 1 µM | – | – | – | – | – | < 0.5 µM | > 32 µg/mL | > 32 µg/mL | > 32 µg/mL | < 8 µg/mL | < 8 µg/mL |
| N[C@@H]1[C@H]2CN(Cc3ccc(-n4ccc(NC(=O)N5CCC6(CC5)CNC6)nc4=O)cc3)C[C@@H]12 [Compound 61] | ≥ 1 µM | – | – | – | – | – | ≥ 1 µM | > 32 µg/mL | > 32 µg/mL | > 32 µg/mL | 8 to 32 µg/mL | > 32 µg/mL |
| N[C@@H]1[C@H]2CN(Cc3ccc(-n4ccc(NC(=O)N5CCC6(CCNCC6)CC5)nc4=O)cc3)C[C@@H]12 [Compound 62] | ≥ 1 µM | – | – | – | – | – | ≥ 1 µM | > 32 µg/mL | > 32 µg/mL | 8 to 32 µg/mL | < 8 µg/mL | < 8 µg/mL |
| N[C@@H]1[C@H]2CN(Cc3ccc(-n4ccc(NC(=O)N5CCC6(CCNC6)C5)nc4=O)cc3)C[C@@H]12 (stereo partly shown) [Compound 63] | ≥ 1 µM | – | – | – | – | – | ≥ 1 µM | > 32 µg/mL | > 32 µg/mL | > 32 µg/mL | > 32 µg/mL | > 32 µg/mL |
| NC1CCC12CCN(C(=O)Nc1ccn(-c3ccc(CN4C[C@@H]5[C@@H](N)[C@@H]5C4)cc3)c(=O)n1)CC2 (stereo partly shown) [Compound 64] | ≥ 1 µM | – | – | – | – | – | ≥ 1 µM | > 32 µg/mL | > 32 µg/mL | 8 to 32 µg/mL | 8 to 32 µg/mL | 8 to 32 µg/mL |
